Assay results published in ChEMBL document CHEMBL3217756, “Biological and computational evaluation of an oxadiazole derivative (MD77) as a new lead for direct STAT3 inhibitors” (Medchemcomm, 2012).
pIC50: −log10 of the molar value.

How the values were obtained:
[1] = system: MDA-MB-468; assay: Cytotoxicity against human MDA-MB-468 cells after 48 hrs by sulforhodamine B assay; format: functional; settings: MDA-MB-468, 48 h
[2] = system: MCF7; assay: Cytotoxicity against human MCF7 cells after 48 hrs by sulforhodamine B assay; format: functional; settings: MCF7, 48 h
[3] = system: HL-60(TB); assay: Cytotoxicity against human HL-60(TB) cells after 48 hrs by sulforhodamine B assay; format: functional; settings: HL-60, 48 h
[4] = system: NCI-H322M; assay: Cytotoxicity against human NCI-H322M cells after 48 hrs by sulforhodamine B assay; format: functional
[5] = Cytotoxicity against human HCT15 cells after 48 hrs by sulforhodamine B assay; format: functional; settings: HCT-15, 48 h
[6] = system: SNB-75; assay: Cytotoxicity against human SNB75 cells after 48 hrs by sulforhodamine B assay; format: functional; settings: SNB-75, 48 h
[7] = system: SK-MEL-28; assay: Cytotoxicity against human SK-MEL-28 cells after 48 hrs by sulforhodamine B assay; format: functional; settings: SK-MEL-28, 48 h
[8] = system: HT-29; assay: Cytotoxicity against human HT-29 cells after 48 hrs by sulforhodamine B assay; format: functional; settings: HT-29, 48 h
[9] = Cytotoxicity against human UO31 cells after 48 hrs by sulforhodamine B assay; format: functional; settings: UO-31, 48 h
[10] = Cytotoxicity against human UACC257 cells after 48 hrs by sulforhodamine B assay; format: functional; settings: UACC-257, 48 h
[11] = system: TK-10; assay: Cytotoxicity against human TK10 cells after 48 hrs by sulforhodamine B assay; format: functional; settings: TK-10, 48 h
[12] = Cytotoxicity against human OVCAR3 cells after 48 hrs by sulforhodamine B assay; format: functional; settings: OVCAR-3, 48 h
[13] = system: 786-0; assay: Cytotoxicity against human 786-0 cells after 48 hrs by sulforhodamine B assay; format: functional; settings: 786-0, 48 h
[14] = system: SNB-19; assay: Cytotoxicity against human SNB19 cells after 48 hrs by sulforhodamine B assay; format: functional; settings: SNB-19, 48 h
[15] = target: Growth factor receptor-bound protein 2 (Homo sapiens, UniProt P62993); assay: Inhibition of SH2 domain of GRB2 (unknown origin) using FITC-PSpYVNVQN as substrate preincubated for 15 mins before substrate addition measured after 90 mins by alphascreen based assay
[16] = system: MOLT-4; assay: Cytotoxicity against human MOLT4 cells after 48 hrs by sulforhodamine B assay; format: functional; settings: MOLT-4, 48 h
[17] = system: A498; assay: Cytotoxicity against human A498 cells after 48 hrs by sulforhodamine B assay; format: functional; settings: A498, 48 h
[18] = system: HOP-92; assay: Cytotoxicity against human HOP92 cells after 48 hrs by sulforhodamine B assay; format: functional; settings: HOP-92, 48 h
[19] = system: T47D; assay: Cytotoxicity against human T47D cells after 48 hrs by sulforhodamine B assay; format: functional
[20] = system: SR; assay: Cytotoxicity against human SR cells after 48 hrs by sulforhodamine B assay; format: functional
[21] = system: IGROV-1; assay: Cytotoxicity against human IGROV1 cells after 48 hrs by sulforhodamine B assay; format: functional; settings: IGROV-1, 48 h
[22] = read-out: LC50 (the source's name)
[23] = read-out: pLC50 (the source's name) (converted)

Chain of Growth factor receptor-bound protein 2 (P62993 whole entry, the tested form may be a part): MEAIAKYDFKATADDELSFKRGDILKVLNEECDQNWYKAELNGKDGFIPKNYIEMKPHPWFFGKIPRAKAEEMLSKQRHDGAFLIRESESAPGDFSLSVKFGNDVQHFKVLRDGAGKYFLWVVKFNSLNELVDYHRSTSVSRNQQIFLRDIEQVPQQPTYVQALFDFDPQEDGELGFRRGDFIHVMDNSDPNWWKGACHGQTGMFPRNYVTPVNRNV

O=C(Nc1nonc1-c1ccc(Cl)cc1)c1ccc(C(F)(F)F)cc1
GI50 ([1]; read-out: GI50): 3.36 µM
LC50 ([1]; read-out: LC50): > 100 µM
TGI ([1]; read-out: TGI): 27 µM
GI50 ([1]; read-out: pGI50 (converted)): 3.39 µM
LC50 ([1]; read-out: pLC50 (converted)): > 100 µM
TGI ([1]; read-out: pTGI (converted)): 26.9 µM
GI50 ([2]; read-out: GI50): 2840 nM
CC50 [2, 22]: > 100 µM
TGI ([2]; read-out: TGI): 8.15 µM
GI50 ([2]; read-out: pGI50 (converted)): 2820 nM
CC50 [2, 23]: > 100 µM
TGI ([2]; read-out: pTGI (converted)): 8.13 µM
GI50 ([3]; read-out: GI50): 546 nM
CC50 [3, 22]: > 100 µM
TGI ([3]; read-out: TGI): 2850 nM
GI50 ([3]; read-out: pGI50 (converted)): 550 nM
CC50 [3, 23]: > 100 µM
TGI ([3]; read-out: pTGI (converted)): 2880 nM
GI50 ([4]; read-out: GI50): 1780 nM
CC50 [4, 22]: > 100 µM
TGI ([4]; read-out: TGI): > 100 µM
GI50 ([4]; read-out: pGI50 (converted)): 1780 nM
CC50 [4, 23]: > 100 µM
TGI ([4]; read-out: pTGI): > 100 µM
GI50 ([5]; read-out: GI50): 3.5 µM
CC50 [5, 22]: > 100 µM
TGI ([5]; read-out: TGI): > 100 µM
GI50 ([5]; read-out: pGI50 (converted)): 3.47 µM
CC50 [5, 23]: > 100 µM
TGI ([5]; read-out: pTGI): > 100 µM
GI50 ([6]; read-out: GI50): 1790 nM
CC50 [6, 22]: > 100 µM
TGI ([6]; read-out: TGI): 7.54 µM
GI50 ([6]; read-out: pGI50 (converted)): 1780 nM
CC50 [6, 23]: > 100 µM
TGI ([6]; read-out: pTGI (converted)): 7.59 µM
GI50 ([7]; read-out: GI50): 4.25 µM
LC50 ([7]; read-out: LC50): > 100 µM
TGI ([7]; read-out: TGI): > 100 µM
GI50 ([7]; read-out: pGI50 (converted)): 4.27 µM
LC50 ([7]; read-out: pLC50 (converted)): > 100 µM
TGI ([7]; read-out: pTGI): > 100 µM
GI50 ([8]; read-out: GI50): 3.23 µM
CC50 [8, 22]: > 100 µM
TGI ([8]; read-out: TGI): > 100 µM
GI50 ([8]; read-out: pGI50 (converted)): 3.24 µM
CC50 [8, 23]: > 100 µM
TGI ([8]; read-out: pTGI): > 100 µM
GI50 ([9]; read-out: GI50): 2370 nM
CC50 [9, 22]: > 100 µM
TGI ([9]; read-out: TGI): > 100 µM
GI50 ([9]; read-out: pGI50 (converted)): 2340 nM
CC50 [9, 23]: > 100 µM
TGI ([9]; read-out: pTGI): > 100 µM
GI50 ([10]; read-out: GI50): 2170 nM
LC50 (50% lethal concentration) ([10]; read-out: LC50): > 100 µM
TGI ([10]; read-out: TGI): 9.02 µM
GI50 ([10]; read-out: pGI50 (converted)): 2190 nM
LC50 (50% lethal concentration) ([10]; read-out: pLC50 (converted)): > 100 µM
TGI ([10]; read-out: pTGI (converted)): 9.12 µM
GI50 ([11]; read-out: GI50): 6.75 µM
CC50 [11, 22]: > 100 µM
TGI ([11]; read-out: TGI): > 100 µM
GI50 ([11]; read-out: pGI50 (converted)): 6.76 µM
CC50 [11, 23]: > 100 µM
TGI ([11]; read-out: pTGI): > 100 µM
GI50 ([12]; read-out: GI50): 2180 nM
CC50 [12, 22]: > 100 µM
TGI ([12]; read-out: TGI): 7.9 µM
GI50 ([12]; read-out: pGI50 (converted)): 2190 nM
CC50 [12, 23]: > 100 µM
TGI ([12]; read-out: pTGI (converted)): 7.94 µM
GI50 ([13]; read-out: GI50): 1980 nM
LC50 ([13]; read-out: LC50): > 100 µM
TGI ([13]; read-out: TGI): 5.19 µM
GI50 ([13]; read-out: pGI50 (converted)): 2000 nM
LC50 ([13]; read-out: pLC50 (converted)): > 100 µM
TGI ([13]; read-out: pTGI): 5.25 µM
GI50 ([14]; read-out: GI50): 3.38 µM
CC50 [14, 22]: > 100 µM
TGI ([14]; read-out: TGI): > 100 µM
GI50 ([14]; read-out: pGI50 (converted)): 3.39 µM
CC50 [14, 23]: > 100 µM
TGI ([14]; read-out: pTGI): > 100 µM
pIC50 [15]: < 4.00
GI50 ([16]; read-out: GI50): 1670 nM
CC50 [16, 22]: > 100 µM
TGI ([16]; read-out: TGI): 6.05 µM
GI50 ([16]; read-out: pGI50 (converted)): 1660 nM
CC50 [16, 23]: > 100 µM
TGI ([16]; read-out: pTGI (converted)): 6.03 µM
GI50 ([17]; read-out: GI50): 1730 nM
LC50 ([17]; read-out: LC50): > 100 µM
TGI ([17]; read-out: TGI): 5.46 µM
GI50 ([17]; read-out: pGI50 (converted)): 1740 nM
LC50 ([17]; read-out: pLC50 (converted)): > 100 µM
TGI ([17]; read-out: pTGI (converted)): 5.5 µM
GI50 ([18]; read-out: GI50): 668 nM
CC50 [18, 22]: > 100 µM
TGI ([18]; read-out: TGI): 3.96 µM
GI50 ([18]; read-out: pGI50 (converted)): 661 nM
CC50 [18, 23]: > 100 µM
TGI ([18]; read-out: pTGI (converted)): 3.98 µM
GI50 ([19]; read-out: GI50): 3.13 µM
CC50 [19, 22]: > 100 µM
TGI ([19]; read-out: TGI): > 100 µM
GI50 ([19]; read-out: pGI50 (converted)): 3.16 µM
CC50 [19, 23]: > 100 µM
TGI ([19]; read-out: pTGI): > 100 µM
GI50 ([20]; read-out: GI50): 2850 nM
CC50 [20, 22]: > 100 µM
TGI ([20]; read-out: TGI): 10.6 µM
GI50 ([20]; read-out: pGI50 (converted)): 2820 nM
CC50 [20, 23]: > 100 µM
TGI ([20]; read-out: pTGI (converted)): 10.7 µM
GI50 ([21]; read-out: GI50): 4.72 µM
LC50 ([21]; read-out: LC50): > 100 µM
TGI ([21]; read-out: TGI): > 100 µM
GI50 ([21]; read-out: pGI50 (converted)): 4.68 µM
LC50 ([21]; read-out: pLC50 (converted)): > 100 µM
TGI ([21]; read-out: pTGI): > 100 µM
